Results published in patent publication US8552035B2, “Phenanthrenone compounds, compositions and methods” (Pfizer Inc., priority 2008, dated 2013).

What was measured:
Format in all cases: cell-based
[1] = system: IFNγ; experiment: LPS-induced human whole blood, IFNγ release; conditions: mean of donors; for inhibition at 0.00137174 µM / inhibition at 0.00411523 µM / inhibition at 0.0123457 µM / inhibition at 0.037037 µM / inhibition at 0.111111 µM / inhibition at 0.333333 µM / inhibition at 1 µM / inhibition at 3 µM: Homo sapiens; for inhibition at 0.00137174 µM: 1.371742 nM; for inhibition at 0.00411523 µM: 4.115226 nM; for inhibition at 0.0123457 µM: 12.34568 nM; for inhibition at 0.037037 µM: 37.03704 nM; for inhibition at 0.111111 µM: 111.1111 nM; for inhibition at 0.333333 µM: 333.3333 nM; for inhibition at 1 µM: 1000 nM
Method: (§1) Venous blood from human donors was collected as 10 ml aliquots in tubes containing sodium heparin (BD Vacutainer from Becton Dickinson and Company, Franklin Lakes, N.Y.). Blood was added to sterile polystyrene round bottom 96-well tissue culture plates (Corning Costar) at 180 Blood was placed in a humidified 37 C incubator with 5% CO2 while compounds were prepared (nearly 60 minutes).
(§2) Compounds were prepared from 10 mM stock solutions in dimethylsulfoxide (DMSO, Sigma-Aldrich). Stock compound was diluted in DMSO to give appropriate starting concentration then diluted serially 1/3 in DMSO (i.e. 15 μl compound+30 μl DMSO), followed by diluting each serial dilution 1/167 into vehicle solution (2% DMSO in phosphate buffered saline (Dulbecco's Phosphate Buffered Saline without calcium chloride without magnesium chloride, Invitrogen Corporation, Carlsbad Calif.)). Compound or vehicle was added to blood in 10 μl aliquots as triplicates, omitting the outside wells to minimize possible edge effects. The final highest concentration of each compound in the assay ranged from 3 to 0.3 μM. Final DMSO concentration in the assay was 0.1%. The plate containing the samples was gently vortexed to mix and replaced in the incubator. LPS stock (E. coli serotype 0111:B4, Sigma-Aldrich), stored in aliquots of 100 μg/ml in RPMI at −20° C., was diluted […] in RPMI to make a working stock solution. After 60 minutes of incubation, 10 μl of the prepared LPS working stock was added to the blood to a final concentration of 100 ng/ml. Wells to be used as negative control received RPMI media with no LPS. The plate was again gently vortexed and the plates incubated overnight for 22 hours. Following incubation, the blood was centrifuged at 1500×g for 5 minutes and the plasma removed to either freeze at −20° C. or assay for cytokine release.
(§3) IL-1β, IFNγ and TNFα protein levels were measured using Meso Scale assay kits (Meso Scale Discovery, Gaithersburg, Md., U.S.A.). Reagents were allowed to come to room temperature. Meso Scale plates were blocked with 150 μl of Meso Scale Block B diluent, gently shaking at room temperature for 60 minutes. Plates were washed 3× with wash buffer (PBS, Invitrogen Corporation, with 0.05% Tween-20, Sigma-Aldrich). Calibrators for standard curves were prepared in human plasma/serum assay diluent as a 1/5 serial dilution to achieve final concentrations ranging from 50000 pg/ml to 3.2 pg/ml. Samples were added at 10 to 20 μl/well and calibrators were added at 20 μl/well then incubated at room temperature with gentle shaking for 2 hours. Plates were again washed 3× with wash buffer. Detection antibody was diluted in human plasma/serum antibody diluent to 1 μg/ml and added to the plate at 20 μl/well. Plates were incubated as before for 2 hours and washed again. Read Buffer T (4×) was diluted 1:1 with mqH20 to 2× concentration and 150 μl added to each well. Plates were read on the SECTOR Imager 6000 (Meso Scale Discovery) to generate raw signal values.
(§4) Individual sample signal values were compared to positive and negative controls (vehicle treated blood with LPS and vehicle treated blood without LPS, respectively) to generate % inhibition. Triplicate values were averaged for each donor. The values for three or four donors were averaged and graphed using 4-parameter fit curves in the LabStats plug-in for the Microsoft Excel application.

[2] = system: IL-1β; experiment: LPS-induced human whole blood, IL-1β release; conditions: Homo sapiens, mean of donors; for inhibition at 0.00137174 µM: 1.371742 nM; for inhibition at 0.00411523 µM: 4.115226 nM; for inhibition at 0.0123457 µM: 12.34568 nM; for inhibition at 0.037037 µM: 37.03704 nM; for inhibition at 0.111111 µM: 111.1111 nM; for inhibition at 0.333333 µM: 333.3333 nM; for inhibition at 1 µM: 1000 nM
Method: as §1, §2, §3, §4

[3] = system: IL-6; experiment: LPS-induced human whole blood, IL-6 release; conditions: mean of donors
[4] = system: TNFα; experiment: LPS-induced human whole blood, TNFα release; conditions: Homo sapiens, mean of donors; for inhibition at 0.00137174 µM: 1.371742 nM; for inhibition at 0.00411523 µM: 4.115226 nM; for inhibition at 0.0123457 µM: 12.34568 nM; for inhibition at 0.037037 µM: 37.03704 nM; for inhibition at 0.111111 µM: 111.1111 nM; for inhibition at 0.333333 µM: 333.3333 nM; for inhibition at 1 µM: 1000 nM
Method: as §1, §2, §3, §4

| Structure (SMILES) | inhibition at 0.00137174 µM [1] | inhibition at 0.00411523 µM [1] | inhibition at 0.0123457 µM [1] | inhibition at 0.037037 µM [1] | inhibition at 0.111111 µM [1] | inhibition at 0.333333 µM [1] | inhibition at 1 µM [1] | inhibition at 3 µM ([1]; 3000 nM) | inhibition at 0.00137174 µM [2] | inhibition at 0.00411523 µM [2] | inhibition at 0.0123457 µM [2] | inhibition at 0.037037 µM [2] | inhibition at 0.111111 µM [2] | inhibition at 0.333333 µM [2] | inhibition at 1 µM [2] | inhibition at 0.00137174 µM [4] | inhibition at 0.00411523 µM [4] | inhibition at 0.0123457 µM [4] | inhibition at 0.037037 µM [4] | inhibition at 0.111111 µM [4] | other results |
| --- | --- | --- | --- | --- | --- | --- | --- | --- | --- | --- | --- | --- | --- | --- | --- | --- | --- | --- | --- | --- | --- |
| Cc1ncccc1CNC(=O)c1ccc2c(c1)CC[C@@H]1C[C@@](O)(CCC(F)(F)F)CC[C@@]21Cc1ccccc1 [Comparator A, (4βS,7S,8αR)-4β-benzyl-7-hydroxy-N-((2-methylpyridin-3-yl)methyl)-7-(3,3,3-trifluoropropyl)-4β,5,6,7,8,8α,9,10-octahydrophenanthrene-2-carboxamide] | 18.1% | -1.7% | 0.016% | -9.81% | 8.74% | -6.32% | 16.5% | 28% | 32% | 22% | 22.8% | 17.3% | 8.6% | 12.2% | 15% | 18.1% | -0.861% | 0.0309% | -4.19% | -3.82% | inhibition at 3 µM ([2]; 3000 nM): 16.4%; inhibition at 0.00137174 µM ([3]; 1.371742 nM): 1.46%; inhibition at 0.00411523 µM ([3]; 4.115226 nM): -4.34%; inhibition at 0.0123457 µM ([3]; 12.34568 nM): -1.13%; inhibition at 0.037037 µM ([3]; 37.03704 nM): -3.52%; inhibition at 0.111111 µM ([3]; 111.1111 nM): -3.5%; inhibition at 0.333333 µM ([3]; 333.3333 nM): -2.83%; inhibition at 1 µM ([3]; 1000 nM): -0.89%; inhibition at 3 µM ([3]; 3000 nM): -1.97%; inhibition at 0.333333 µM [4]: -4.61%; inhibition at 1 µM [4]: -5.44%; inhibition at 3 µM ([4]; 3000 nM): -3.04% |
| Oc1ccc2c(c1)CC[C@@H]1C[C@@](O)(c3ccccc3)[C@@H](O)C[C@@]21Cc1ccccc1 [Comparator F, (2R,3S,4aR,10aR)-4a-Benzyl-2-phenyl-1,2,3,4,4a,9,10,10a-octahydrophenanthrene-2,3,7-triol] | -12.4% | -15.3% | -8.35% | -13.4% | -4.6% | -3.3% | 14.6% | 22% | -4.16% | -6.16% | -5.49% | -6.15% | -4.59% | -2.45% | 0.22% | -2.51% | -8.12% | -6.79% | -4.23% | -6.35% | IFNγ (% inhibition) ([1]; 3000 nM, 3 µM): 21.96%; inhibition at 0.333333 µM [4]: -3.43%; inhibition at 1 µM [4]: 4.14% |
